Laboratory results from patent publication US4413007A, “Pesticidal symmetrical N-substituted bis-carbamoyloximino disulfide compounds” (priority 1978, dated 1983).

Key:
[1] = system: Mexican bean beetle (Epilachna varivestis, Muls.); test: Mexican Bean Beetle Leaf Spray Test; type: in vivo; set-up: key: A: excellent control; B: partial control; C: no control; conditions: 500 ppm, three days
Experimental: (§1) Suspensions of the test compounds were prepared by dissolving one gram of compound in 50 milliliters of acetone in which had been dissolved 0.1 gram (10 percent of the weight of compound) of an alkylphenoxy polyethoxyethanol surfactant, as an emulsifying or dispersing agent. The resulting solution was mixed into 150 milliliters of water to give roughly 200 milliliters of a suspension containing the compound in finely divided form. The thus-prepared stock suspension contained 0.5 percent by weight of compound. The test concentrations in parts per million by weight employed in the tests described hereinbelow were obtained by appropriate dilutions of the stock suspension with water. The test procedures were as follows:
Fourth instar larvae of the Mexican bean beetle (Epilachna varivestis, Muls.), reared on Tendergreen bean plants at a temperature of 80±5° F. and 50±5 percent relative humidity, were the test insects.
The test compounds were formulated by diluting the stock suspension with water to give a suspension containing 500 parts of test compound per million parts of final formulation. Potted Tendergreen bean plants of standard height and age were placed on a revolving turntable and sprayed with 100-110 milliliters of test compound formulation by use of a DeVilbiss spray gun set at 10 psig air pressure. The application, which lasted 25 seconds, was sufficient to wet plants to run-off. As a control, 100-110 milliliters of a water-acetone-emulsifier solution containing no test compound were also sprayed on infested plants. When dry, the paired leaves were separated and each was placed in a 9 centimeter Petri dish lined with moistened filter paper. Five randomly selected larvae were introduced into each dish, and the dishes were closed. The closed dishes were labeled and held at a temperature of 80±5° F. for three days. Although the larvae could easily consume the leaf within 24 to 48 hours, no more food was added. Larvae which were unable to move the length of the body, even upon stimulation, were considered dead.
(§2) In these tests the pesticidal activity of the compounds against aphid, mite, Southern Armyworm, Bean Beetle and house fly was rated as follows: […]

[2] = system: southern armyworm (Prodenia eridania, (Cram.)); test: Southern Armyworm Leaf Spray Test; type: in vivo; set-up: key: A: excellent control; B: partial control; C: no control; conditions: 500 ppm, three days
Experimental: as §1
Larvae of the southern armyworm (Prodenia eridania, (Cram.)), reared on Tendergreen bean plants at a temperature of 80±5° F. and a relative humidity of 50±5 percent, constituted the test insects.
The test compounds were formulated by diluting the stock suspension with water to give a suspension containing 500 parts of test compound per million parts of final formulation. Potted Tendergreen bean plants of standard height and age were placed on a revolving turntable and sprayed with 100-110 milliliters of test compound formulation by use of a DeVilbiss spray gun set at 10 psig air pressure. This application, which tested 25 seconds, was sufficient to wet plants to run-off. As a control, 100-110 milliliters of a water-acetone-emulsifier solution containing no test compound were also sprayed on infested plants. When dry, the paired leaves were separated and each one was placed in a 9 centimeter Petri dish lined with moistened filter paper. Five randomly selected larvae were introduced into each dish and the dishes were closed. The closed dishes were labeled and held at 80°-85° F. for three days. Although the larvae could easily consume the whole leaf within twenty-four hours, no more food was added. Larvae which were unable to move the length of the body, even upon stimulation by prodding, were considered dead. Percent mortality was recorded for various concentration levels.
as §2

[3] = system: root-knot nematode (Meloidogyne incognita var. acrita); test: Nematode Test; type: in vivo; set-up: key: 1: severe galling; equal to untreated control; 2: moderate galling; 3: light galling; 4: very light galling; 5: no galling; conditions: 10 ml of 500 ppm formulation per jar (approx. 180 cc soil), cucumber indicator crop, approx. three weeks
Experimental: as §1
Infective migratory larvae of the root-knot nematode, (Meloidogyne incognita var. acrita) were reared in the greenhouse on roots of Rutgers variety tomato plant. Infected tomato plants were removed from the culture and the roots were chopped very finely. A small amount of inoculum from the roots was added to pint Mason jars containing approximately 180 cc of soil. The jars containing the inoculum and soil were capped and incubated for one week at room temperature. During this period eggs of the nematode hatched and the larvae forms migrated into the soil.
The test compounds were formulated by diluting the stock suspension with water to give a suspension containing 500 parts of test compound per million parts of final formulation. 10 milliliters of the test formulation was added to each of two jars for each dosage treated. As a control 10 milliliters of a water-acetone-emulsifier solution containing no test compound was also added to jars containing nematode larvae. The jars were capped and the contents thoroughly mixed on a kale mill for five minutes. The jars remained capped at room temperature for a period of 48 hours and the contents were then transferred to 3 inch pots. Subsequently, the pots were seeded to cucumber as an indicator crop and placed in the green house where they were cared for in the normal fashion for growing potted cucumber for approximately three weeks. These cucumber plants were then removed from the pots, the soil washed from the roots and the amount of galling visually rated.
The nematocidal toxicity has the following ratings;

[4] = system: house flies (Musca domestica, L.); test: Fly Bait Test; type: in vivo; set-up: key: A: excellent control; B: partial control; C: no control; conditions: 500 ppm in sugar solution, twenty four hours
Experimental: as §1
Four to six day old adult house flies (Musca domestica, L.) reared according to the specifications of the Chemical Specialities Manufacturing Association (Blue Book, McNair-Dorland Co., N.Y. 1954; pages 243-244, 261) under controlled conditions of 80±5° F. and 50±5 percent relative humidity, were the test insects. The flies were immobilized by anesthetizing with carbon dioxide and twenty five immobilized individuals,males and females, were transferred to a cage consisting of a standard food strainer about five inches in diameter which was inverted over a wrapping-paper-covered surface. The test compounds were formulated by diluting the stock suspension with a 10 percent (by weight) sugar solution to give a suspension containing 500 parts of test compound per million parts of final formulation, by weight. Ten milliliters of the test formulation were added to a souffle cup containing a one-inch square of an absorbent cotton pad. This bait cup was introduced and centered on the blotting paper under the food strainer prior to admitting the anesthetized flies. The caged flies were allowed to feed on the bait for twenty four hours, at a temperature of 80±5° F. and the relative humidity of 50±5 percent.
as §2

[5] = Peroral toxicity to mammals (rat); conditions: in vivo, po, 50 percent mortality, read-out: A.O. Rat (LD50)
Experimental: Certain of these compositions were also evaluated to determine their peroral toxicity to mammals. The animal selected for this experiment was the rat. The test results obtained are expressed in terms of the number of milligrams of compositions per kilogram of weight of the animal required to achieve a mortality rate of 50 percent (LD50).

SMILES	Mexican Bean Beetle control rating [1]	Southern Armyworm control rating [2]	Root-Knot Nematode galling rating [3]	House-Fly control rating [4]	LD50 [5]
CN(SSN(C)C(=O)ON=C1CSCCS1)C(=O)ON=C1CSCCS1 [N,N'-Bis-[1,4-Dithiane-2-O-(N-methylcarbamoyl)oximino]disulfide]	A	A	1	A	160 mg/kg
CC(=NOC(=O)N(C)SSN(C)C(=O)ON=C(C)SCCC#N)SCCC#N [N,N'-Bis-[1-(2-Cyanoethylthio)acetaldehyde O-(N-methylcarbamoyl)oxime]disulfide]	A	A	4	A	80 mg/kg
CSC(C)=NOC(=O)N(C)SSN(C)C(=O)ON=C(C)SC [N,N'-Bis-[1-Methylthioacetaldehyde O-(N-methylcarbamoyl)oxime]disulfide]	A	A	1	A	190 mg/kg
